One assay deals with T1, HsNMT1 (Homo sapiens, UniProt P30419).
T1 construct: made in house
T1 sequence (P30419 1-496): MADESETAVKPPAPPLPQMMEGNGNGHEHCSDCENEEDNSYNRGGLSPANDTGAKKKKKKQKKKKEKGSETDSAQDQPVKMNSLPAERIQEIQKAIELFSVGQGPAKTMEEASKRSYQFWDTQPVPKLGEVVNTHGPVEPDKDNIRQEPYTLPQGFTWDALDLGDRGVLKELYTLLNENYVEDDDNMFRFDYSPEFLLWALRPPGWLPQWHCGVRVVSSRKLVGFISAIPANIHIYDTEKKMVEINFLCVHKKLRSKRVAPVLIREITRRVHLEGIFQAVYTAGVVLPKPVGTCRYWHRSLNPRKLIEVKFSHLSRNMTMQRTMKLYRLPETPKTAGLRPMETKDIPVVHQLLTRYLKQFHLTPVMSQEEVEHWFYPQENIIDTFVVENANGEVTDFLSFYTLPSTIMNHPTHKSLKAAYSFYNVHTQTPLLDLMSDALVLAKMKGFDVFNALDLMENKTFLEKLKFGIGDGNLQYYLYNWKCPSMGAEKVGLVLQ
The assay can be described thus: NMT activity assay (CPM detection of free CoA), human NMT. In kind it is biochemical. The conditions noted are these: read-out: HsNMT IC50 (nM)*.

A further assay concerns the target T2, PvNMT (Plasmodium vivax, UniProt A5K1A2).
T2 construct: Gly-Pro stays on the protein after cleavage) (N, cleaved yes); host or cells: E. coli Rosetta 2 (DE3) pRARE
The assay can be described thus: biochemical. In kind it is biochemical. From the text:
NMT activity was indirectly measured through the detection of free CoA by the thiol-reactive probe 7-diethylamino-3-(4′-maleimidylphenyl)-4-methylcoumarin (CPM).
This study aimed to identify NMT is with high selectivity for the P. vivax enzyme compared with human NMTs and high potency against the different stages of the P. vivax parasite. For this purpose, a structure-guided approach was applied using previously reported NMT inhibitors as scaffolds to develop a new generation of PvNMT-targeting compounds. The NMT activity of these inhibitors was first measured using biochemical assays through the detection of free CoA by the thiol-reactive probe 7-diethylamino-3-(4′-maleimidylphenyl)-4-methylcoumarin (CPM). Their antiparasitic activity were further evaluated by measuring blood-stage parasite load and inhibition of P. vivax liver-stage schizont and hypnozoite infection. […] Cytotoxicity was assessed in the human hepatoma HepG2 cell line. Synchronized P. falciparum NF54 ring-stage parasites were used for measuring blood-stage parasite load. […] In vitro experiments were repeated at least twice. A single concentration of each inhibitor was initially used to evaluate the inhibition of P. vivax liver stage schizont and hypnozoite infection, followed by the determination of the dose-response relationship.
To measure the activity of the purified PvNMT an assay was adapted from the literature. […] Working stock solutions were made fresh adding DMSO for final concentrations of either 1% or 5% DMSO. […] The plate was incubated for 30 min at room temperature. The enzymatic reaction was initiated by adding 50 μL of reaction substrate containing 10 µM myrCoA and PfARF, as well as 8 μM CPM. Fluorescent readings were taken on a Spectra M2 plate reader (Molecular Devices) with excitation at 385 nm and emission at 485 nm. Fluorescent intensity was measured continuously in one-minute intervals for 45 minutes. Background fluorescence and noise were determined by replacing each constituent of the reaction individually with assay buffer containing 1% DMSO and values were deducted from experimental samples. The enzymatic reactions were set up with varying pHs (6.0-8.5) of the assay buffer to determine optimal reaction conditions with minimal background and off target reactions. In lieu of compound, 10 μL of 10% DMSO/H2O was added to each well. Fluorescence signal was obtained continuously for 45 min. […] IC50 calculations were calculated using Prism (GraphPad Software, Inc).

Another assay relates to P. vivax hypnozoites. Put plainly: P. vivax liver stage assay in primary human hepatocytes, hypnozoites. The assay is classed as cell-based. Particulars: Plasmodium vivax, Hepatocyte; 20 μM. As for the experimental part: Finally, the NMT-binding compounds were evaluated against non-developing P. vivax hypnozoites. […] .
A further assay relates to P. falciparum. The conditions noted are these: background; read-out: EC50 in a P. falciparum growth assay; cited from earlier work.
Another assay relates to Plasmodium NMT. The conditions noted are these: background, cited from earlier work.
[1] abbreviates: Table 1, mean values of two or more determinations.
[2] abbreviates: Table 1, enzyme selectivity calculated as HsNMT IC50/PvNMT IC50.

Read-outs that look alike come from different tables or passages of the source.

T2 sequence (A5K1A2 entry or part of it): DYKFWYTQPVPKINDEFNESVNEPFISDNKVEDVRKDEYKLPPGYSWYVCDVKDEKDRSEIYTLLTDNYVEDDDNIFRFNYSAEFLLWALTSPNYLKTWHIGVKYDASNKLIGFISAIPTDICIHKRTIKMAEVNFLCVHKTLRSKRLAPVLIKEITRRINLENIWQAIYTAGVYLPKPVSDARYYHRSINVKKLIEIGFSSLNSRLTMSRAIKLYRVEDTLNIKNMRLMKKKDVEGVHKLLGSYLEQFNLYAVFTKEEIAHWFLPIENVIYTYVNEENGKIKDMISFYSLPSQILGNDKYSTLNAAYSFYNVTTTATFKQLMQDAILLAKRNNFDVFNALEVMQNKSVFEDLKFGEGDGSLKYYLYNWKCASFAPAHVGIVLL

As for “3-(2′-(3,5-dimethyl-1H-pyrazol-4-yl)ethoxy-4′-fluoro-[1,1′-biphenyl]-3-yl)piperazine [Compound 12p]”, the IC50 on HsNMT1 (setting [1]) is 23100 nM; against PvNMT (setting [1]) it was 368 nM. Moreover, the “SI**” value at PvNMT (setting [2]) was 62.7.
Taken in the same sequence, the figures for `Cc1nn(C)c(C)c1CCOc1cccnc1-c1ccnc(N2CCNCC2)c1` [Compound 12a, 2′-(piperazin-1-yl)-3-(2-(1,3,5-trimethyl-1H-pyrazol-4-yl)ethoxy)-2,4′-bipyridine] were 5400 nM, 36.8 nM and 146.7.
With `Cc1nn(C)c(C)c1CCOc1cccnc1-c1cccc(N2CCNCC2)c1` [Compound 12b, 1-(3-(3-(2-(1,3,5-trimethyl-1H-pyrazol-4-yl)ethoxy)pyridin-2-yl)phenyl)piperazine], the 50% inhibitory concentration (IC50) at HsNMT1 (setting [1]) was found to be 20800 nM; against PvNMT (setting [1]), 80.2 nM.
As to `Cc1nn(C)c(C)c1CCOc1ccccc1-c1ccnc(N2CCNCC2)c1` [Compound 12c, 1-(4-(2-(2-(1,3,5-trimethyl-1H-pyrazol-4-yl)ethoxy)phenyl)pyridin-2-yl)piperazine], the concentration for half-maximal inhibition (IC50) on HsNMT1 (setting [1]) came to 599 nM; on PvNMT (setting [1]), 9.48 nM. For the same compound, the “SI**” value at PvNMT (setting [2]) was 63.1.
Take `Cc1nn(C)c(C)c1CCOc1ccccc1-c1cccc(N2CCNCC2)c1` [Compound 12d, 1-(2′-(2-(1,3,5-trimethyl-1H-pyrazol-4-yl)ethoxy)-[1,1′-biphenyl]-3-yl)piperazine]: the IC50 is 7440 nM at HsNMT1 (setting [1]) and 48.5 nM against PvNMT (setting [1]). Further, the “SI**” value at PvNMT (setting [2]) is recorded as 153.4.
Taken in the same sequence, the figures for `Cc1nn(C)c(C)c1CCOc1cc(F)ccc1-c1ccnc(N2CCNCC2)c1` [Compound 12e, 1-(4-(4-fluoro-2-(2-(1,3,5-trimethyl-1H-pyrazol-4-yl)ethoxy)phenyl)pyridin-2-yl)piperazine] were 124 nM, 15.8 nM and 7.8.
Taken in the same sequence, the figures for `Cc1nn(C)c(C)c1CCOc1cc(F)ccc1-c1cccc(N2CCNCC2)c1` [Compound 12f, 1-(4′-fluoro-2′-(2-(1,3,5-trimethyl-1H-pyrazol-4-yl)ethoxy)-[1,1′-biphenyl]-3-yl)piperazine] were 699 nM, 15.9 nM and 43.9.
As to `c1cncc(CCOc2cccnc2-c2cccc(N3CCNCC3)c2)c1` [Compound 12g, 1-(3-(3-(2-(pyridin-3-yl)ethoxy)pyridin-2-yl)phenyl)piperazine], the concentration for half-maximal inhibition (IC50) on HsNMT1 (setting [1]) stood at 15900 nM; on PvNMT (setting [1]) it was 104 nM. In addition, the “SI**” value at PvNMT (setting [2]) is given as 152.8.
Taken in the same sequence, the figures for `c1cncc(CCOc2cccnc2-c2ccnc(N3CCNCC3)c2)c1` [Compound 12h, 2′-(piperazin-1-yl)-3-(2-(pyridin-3-yl)ethoxy)-2,4′-bipyridine] were more than 40000 nM, 441 nM and 90.9.
Taken in the same sequence, the figures for `c1cncc(CCOc2ccccc2-c2ccnc(N3CCNCC3)c2)c1` [Compound 12j, 1-(4-(2-(2-(pyridin-3-yl)ethoxy)phenyl)pyridin-2-yl)piperazine] were 27400 nM, 124 nM and 220.6.
Taken in the same sequence, the figures for `Fc1ccc(-c2ccnc(N3CCNCC3)c2)c(OCCc2cccnc2)c1` [Compound 12l, 1-(4-(4-fluoro-2-(2-(pyridin-3-yl)ethoxy)phenyl)pyridin-2-yl)piperazine] were 1710 nM, 23.4 nM and 73.
On to `Cc1n[nH]c(C)c1CCOc1ccccc1-c1ccnc(N2CCNCC2)c1` [Compound 12n, 1-(4-(2-(2-(3,5-dimethyl-1H-pyrazol-4-yl)ethoxy)phenyl)pyridin-2-yl)piperazine], for which the values for the IC50 on HsNMT1 (setting [1]) and at PvNMT (setting [1]) were 39700 nM and 604 nM, respectively. Moreover, the “SI**” value at PvNMT (setting [2]) is 65.7.
As to `Cc1nn(C)c(C)c1CCOc1cc(F)ccc1-c1cc(N2CCNCC2)ncn1` [Compound 16b, 4-(4-fluoro-2-(2-(1,3,5-trimethyl-1H-pyrazol-4-yl)ethoxy)phenyl)-6-(piperazin-1-yl)pyrimidine], the figures for the IC50 on HsNMT1 (setting [1]) and against PvNMT (setting [1]) were 27600 nM and 168 nM, respectively. The “SI**” value at PvNMT (setting [2]) was 164.4. The “selectivity index (SI)” value on PvNMT (ratio of IC50 values for HsNMT1 and PvNMT) turned out to be 164.
Take `Cc1nn(C)c(C)c1CCOc1cccnc1-c1cccc(OCCN(C)C)c1` [Compound 26a, N,N-dimethyl-2-(3-(3-(2-(1,3,5-trimethyl-1H-pyrazol-4-yl)ethoxy)pyridin-2-yl)phenoxy)-ethan-1-amine]: the IC50 on HsNMT1 (Table 2) is more than 40000 nM; on PvNMT (Table 2), 266 nM. Besides, the “SI**” value at PvNMT (Table 2, HsNMT IC50/PvNMT IC50) is reported as 153.8.
For `Cc1nn(C)c(C)c1CCOc1ccccc1-c1cccc(OCCN(C)C)c1` [Compound 26b, N,N-dimethyl-2-((2′-(2-(1,3,5-trimethyl-1H-pyrazol-4-yl)ethoxy)-[1,1′-biphenyl]-3-yl)oxy)-ethan-1-amine], in that order: 9850 nM, 83.2 nM and 118.4.
As for `Cc1nn(C)c(C)c1CCOc1cc(F)ccc1-c1cccc(OCCN(C)C)c1` [Compound 26c, 2-((4′-fluoro-2′-(2-(1,3,5-trimethyl-1H-pyrazol-4-yl)ethoxy)-[1,1′-biphenyl]-3-yl)oxy)-N,N-dimethylethan-1-amine], the concentration for half-maximal inhibition (IC50) on HsNMT1 (Table 2) came out at 4790 nM; at PvNMT (Table 2), 29.4 nM. Also, the “SI**” value on PvNMT (Table 2, HsNMT IC50/PvNMT IC50) came out at 162.3.
On to `CN(C)CCOc1cccc(-c2ccc(F)cc2OCCc2cccnc2)c1` [Compound 26f, 2-((4′-fluoro-2′-(2-(pyridin-3-yl)ethoxy)-[1,1′-biphenyl]-3-yl)oxy)-N,N-dimethylethan-1-amine], for which the values for the half-inhibitory concentration (IC50) on HsNMT1 (Table 2) and at PvNMT (Table 2) were more than 40000 nM and 622 nM, respectively. In addition, the “SI**” value on PvNMT (Table 2, HsNMT IC50/PvNMT IC50) was 62.3.
Taken in the same sequence, the figures for `Cc1n[nH]c(C)c1CCOc1cc(F)ccc1-c1cccc(OCCN(C)C)c1` [Compound 26i, 2-((2′-(2-(3,5-dimethyl-1H-pyrazol-4-yl)ethoxy)-4′-fluoro-[1,1′-biphenyl]-3-yl)oxy)-N,N-dimethylethan-1-amine] were 13900 nM, 242 nM and 57.
Compound `c1cncc(CCOc2ccc3ccccc3c2-c2ccnc(N3CCNCC3)c2)c1` [Compound 30c, 1-(4-(2-(2-(pyridin-3-yl)ethoxy)naphthalen-1-yl)pyridin-2-yl)piperazine] showed an inhibition at 20 µM with P. vivax hypnozoites of more than 75%. The IC50 on HsNMT1 (Table 2) was more than 40000 nM; at PvNMT (Table 2), 248 nM. In addition, the “SI**” value at PvNMT (Table 2, HsNMT IC50/PvNMT IC50) was 161.
Compound `Cc1n[nH]c(C)c1CCOc1ccc2ccccc2c1-c1cccc(OCCN(C)C)c1` [Compound 30f, 2-(3-(2-(2-(3,5-dimethyl-1H-pyrazol-4-yl)ethoxy)naphthalen-1-yl)phenoxy)-N,N-dimethylethan-1-amine] had an IC50 at PvNMT (Table 2) of 25400 nM.
`Cc1nn(C)c(C)c1NS(=O)(=O)c1c(Cl)cc(-c2ccnc(N3CCNCC3)c2)cc1Cl` [DDD85646]: the EC50 with P. falciparum was 69 nM.
Take `Cc1nn(C)c(C)c1CCOc1cc(F)ccc1-c1ccc2c(c1)c(CN(C)C)nn2C` [IMP-1002]: in the assay on Plasmodium NMT (previously developed NMT inhibitors), the IC50 is 3 nM. In the assay on Plasmodium NMT, the “selectivity over HsNMT1/2” value was “up to fourfold”. In the assay with P. falciparum, the EC50 is 10 nM.

Usually IC50 stands for the midpoint of a concentration-inhibition curve. The inhibition is the share of the control response that was lost under treatment. Higher therefore signals a response far below the control. What is called EC50 is the concentration giving half of the maximal effect.
